The source of these data is paper PMC10054553, “Development of the First ^18F-Labeled Radiohybrid-Based Minigastrin Derivative with High Target Affinity and Tumor Accumulation by Substitution of the Chelating Moiety” (Pharmaceutics, 2023).

A short description of series [1]: Lipophilicity (logD7.4), n-octanol/PBS pH 7.4. The series is classed as physicochemical. Here is the method: Cell-based experiments and determination of lipophilicity (logD7.4) were performed as previously published. A detailed description of the in vitro experiments is provided in the Supplementary Materials.
Cell Culture. CCK-2R-expressing rat pancreatic cancer cells AR42J (CLS GmbH, Eppelheim, Germany) were cultivated in monolayers in CELLSTAR® cell culture flasks acquired from Greiner Bio-One GmbH (Frickenhausen, Germany) at 37°C in a humidified atmosphere (5% CO2) using a HERAcell 150i-Incubator (Thermo Fisher Scientific Inc., Waltham, United States). The nutrient medium RPMI 1640 medium, supplemented with 5 mM L-Gln 5 mL non-essential amino acids (100×) and 10% FCS, was used. Furthermore, a Dulbecco’s PBS solution with 0.1% EDTA (v/v) was applied to detach the cells for cell passaging. The detached cells were counted using a Neubauer hemocytometer (Paul Marienfeld, Lauda-Königshofen, Germany). In addition, all operations under sterile conditions were accomplished using a MSC-Advantage safety workbench (Thermo Fisher Scientific Inc., Waltham, United States).
Determination of IC50. AR42J cells (2.0 × 10^5 cells/well) were seeded into 24-well plates 24 ± 2 h prior to testing using 1 mL of nutrient medium (RPMI 1640, 5 mM L-Gln, 5 mL non-essential amino acids (100×), 10% FCS). Cells were incubated at 37°C in a humidified atmosphere (5% CO2).
After the removal of the medium, each well was washed with 500 μL PBS. For the cell-based assay, 200 μL of the nutrient medium (+5% BSA), [ 177Lu]Lu-DOTA-PP-F11N (25 μL, 0.3 pmol) as a radiolabeled reference and 25 μL of the peptide of interest in increasing concentrations (10 −10 to 10−4 M) were added to the cells in triplicate. Thereafter, the assay was incubated for 3 h at 37°C and the supernatant was collected. The cells were washed with 300 μL PBS and the collected supernatant fractions were unified.
After lysis of the cells with NaOH (300 μL, 1 N) for 15 min, the respective wells were washed with NaOH (300 μ L, 1 N) and both fractions were unified. The radioactivity of both the supernatant and the lysed fractions were quantified using a γ-counter (PerkinElmer Inc., Waltham, United States). The obtained data were evaluated via the GraphPad PRISM software (GraphPad Software Inc., La Jolla, United States), which calculates the half-maximal inhibitory concentration (IC50) of the peptides.
Internalization Studies. For the determination of the internalization kinetics of the various peptides, AR42J cells (3.0 × 10^5 cells/well) were seeded into polylysine-coated 24-well plates, adding 1 mL of nutrient medium. Afterwards, the cells were incubated for 24 ± 2 h at 37°C in a humidified atmosphere […]
On the day of the experiment, the medium was removed, and each well was washed with nutrient medium (300 μL). Afterwards 200 μL of nutrient medium, 25 μL of the 177Lu-labeled peptide (0.3 pmol, n = 6) and either 25 μL of nutrient medium for internalization studies ( n = 3) or 25 μL of [natLu]Lu-DOTA-PP-F11N (10 μmol) for competition studies ( n = 3) were added. Thereafter, the assay was incubated for various time points (1, 2, 4 and 6 h) at 37°C in a humidified atmosphere (5% CO2). After incubation, the cells were put on ice for at least 1 min to stop internalization kinetics and the supernatant was collected. Then, the cells were washed with an ice-cold nutrient medium (300 μL) and both fractions were unified. […] The radioactivity of the supernatant, the acid wash and the lysed fractions were quantified using a γ-counter. […]

Series [2] in a line: Stability studies in human serum. The series is classed as in vitro ADME. The note with it: 37 °C, 24 h; for Intact peptide (%): n = 3, 1440 min; for SiOH-containing analog (%): n = 3, analog with hydrolyzed SiFA moiety. As to the method: In vitro stability studies in human serum after incubation at 37 °C for 24 h were performed as described in the Supplemental Material.
Stability Studies in Human Serum. The 177Lu- as well as 67Ga-labeled CCK-2R ligands (1 nmol,
approx. 5 MBq) were incubated for 24 h in human serum (200 μL) at 37 °C. After incubation, ice-cold
EtOH (125 μL) and MeCN (375 μL) were added and the suspension was centrifuged for 5 min at
5000 rpm. Then, the supernatant was transferred into new vials and centrifuged for another 5 min at
5000 rpm. After separating the precipitate from the solution, the stability of the ligands was determined

Series [3] concerns the target Human serum albumin (HSA) (Homo sapiens, UniProt P02768). Nature of the series: Human serum albumin (HSA) binding, ultracentrifugation method. The series is classed as in vitro ADME. The settings on record: HSA 700 µM in PBS, 37 °C, 30 min, n = 6, corrected for unspecific binding. Here is the method: Human serum albumin (HSA) binding was determined in analogy to a previously published ultracentrifugation method. Therefore, the peptides of interest were incubated in a solution of HSA (700 µM in phosphate-buffered saline) at 37 °C for 30 min (n = 6). All values were corrected for unspecific binding.

Sequence of Human serum albumin (HSA) (P02768 25-609): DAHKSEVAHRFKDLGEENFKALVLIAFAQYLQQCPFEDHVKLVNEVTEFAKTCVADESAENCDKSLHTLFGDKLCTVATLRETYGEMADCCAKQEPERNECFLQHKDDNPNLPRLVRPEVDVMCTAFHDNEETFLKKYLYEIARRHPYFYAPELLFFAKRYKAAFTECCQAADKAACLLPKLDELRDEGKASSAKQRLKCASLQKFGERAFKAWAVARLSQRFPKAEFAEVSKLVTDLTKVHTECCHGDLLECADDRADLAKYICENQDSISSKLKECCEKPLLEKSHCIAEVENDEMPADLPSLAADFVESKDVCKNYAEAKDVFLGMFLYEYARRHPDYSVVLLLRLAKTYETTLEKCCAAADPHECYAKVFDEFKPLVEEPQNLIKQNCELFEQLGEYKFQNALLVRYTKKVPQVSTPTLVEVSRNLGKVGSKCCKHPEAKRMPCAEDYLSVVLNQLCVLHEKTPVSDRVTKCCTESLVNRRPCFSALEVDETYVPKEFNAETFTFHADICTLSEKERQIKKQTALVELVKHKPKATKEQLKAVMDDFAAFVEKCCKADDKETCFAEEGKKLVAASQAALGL

Turning to `CCCC[C@H](NC(=O)[C@H](Cc1c[nH]c2ccccc12)NC(=O)CNC(=O)[C@H](Cc1ccc(O)cc1)NC(=O)[C@H](C)NC(=O)CC[C@@H](NC(=O)CC[C@@H](NC(=O)CC[C@@H](NC(=O)CC[C@@H](NC(=O)CC[C@@H](NC(=O)CC[C@@H](NC(=O)[C@@H](CNC(=O)c1ccc([Si](F)(C(C)(C)C)C(C)(C)C)cc1)NC(=O)CN1CCN(CC(=O)O)CCN(CC(=O)O)CCN(CC(=O)O)CC1)C(=O)O)C(=O)O)C(=O)O)C(=O)O)C(=O)O)C(=O)O)C(=O)N[C@@H](CC(=O)O)C(=O)N[C@@H](Cc1ccccc1)C(N)=O` [[^177Lu]Lu-DOTA-rhCCK-16, metal not drawn], in series [1] (pH 7.4, n-octanol/PBS pH 7.4, read-out: logD7.4), the logD was -2.7 ± 0.09. Moreover, the “Intact peptide (%)” value in series [2] came to 21.8 ± 0.8%. The “SiOH-containing analog (%)” value in series [2] (listed as [177Lu]Lu-DOTA-rhCCK-16) came out at 69.1 ± 1.0%. Also, the “HSA Binding (%)” value in series [3] is 89.1%.
Turning to `CCCC[C@H](NC(=O)[C@H](Cc1c[nH]c2ccccc12)NC(=O)CNC(=O)[C@H](Cc1ccc(O)cc1)NC(=O)[C@H](C)NC(=O)CC[C@@H](NC(=O)CC[C@@H](NC(=O)CC[C@@H](NC(=O)CC[C@@H](NC(=O)CC[C@@H](NC(=O)CC[C@@H](NC(=O)CC[C@@H](NC(=O)CC[C@@H](NC(=O)[C@@H](CNC(=O)c1ccc([Si](F)(C(C)(C)C)C(C)(C)C)cc1)NC(=O)CN1CCN(CC(=O)O)CCN(CC(=O)O)CCN(CC(=O)O)CC1)C(=O)O)C(=O)O)C(=O)O)C(=O)O)C(=O)O)C(=O)O)C(=O)O)C(=O)O)C(=O)N[C@@H](CC(=O)O)C(=O)N[C@@H](Cc1ccccc1)C(N)=O` [[^19F]F-[^177Lu]Lu-DOTA-rhCCK-18] [metal not drawn], in series [1] (n-octanol/PBS pH 7.4), the logD7.4 is reported as −2.69 ± 0.06. Further, in series [2], the “Intact peptide (%)” value stood at 25.3 ± 3.1% and the “SiOH-containing analog (%)” value is reported as 67.7 ± 3.1%. Besides, the “HSA Binding (%)” value in series [3] was 62.6%. The “HSA Binding (%)” value in series [3] (listed as [^177Lu]Lu-DOTA-rhCCK-18) was 62.6%.
